What follows are compounds tested against T1, Human complement C1s enzyme (Homo sapiens, UniProt P09871) (assay: Human C1s Enzyme Assay). Settings: human C1s 1.16 nM, 5 min preincubation, substrate Z-L-Lys-SBzl 100 μM, A405; read-out: C1s Protease Activity.
T1 construct: purified from human serum, Complement Technology, Inc; purchased Complement Technology, Inc; host or cells: human serum
T1 sequence (P09871 438-688 limits assumed): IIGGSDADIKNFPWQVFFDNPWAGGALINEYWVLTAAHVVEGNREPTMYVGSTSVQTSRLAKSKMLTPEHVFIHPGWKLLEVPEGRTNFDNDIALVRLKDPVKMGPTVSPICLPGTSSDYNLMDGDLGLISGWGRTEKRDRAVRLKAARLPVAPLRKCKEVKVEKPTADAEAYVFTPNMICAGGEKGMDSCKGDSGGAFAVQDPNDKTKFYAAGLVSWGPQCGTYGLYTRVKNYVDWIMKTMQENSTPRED
T1 sequence (P09871 16-437 partner limits assumed): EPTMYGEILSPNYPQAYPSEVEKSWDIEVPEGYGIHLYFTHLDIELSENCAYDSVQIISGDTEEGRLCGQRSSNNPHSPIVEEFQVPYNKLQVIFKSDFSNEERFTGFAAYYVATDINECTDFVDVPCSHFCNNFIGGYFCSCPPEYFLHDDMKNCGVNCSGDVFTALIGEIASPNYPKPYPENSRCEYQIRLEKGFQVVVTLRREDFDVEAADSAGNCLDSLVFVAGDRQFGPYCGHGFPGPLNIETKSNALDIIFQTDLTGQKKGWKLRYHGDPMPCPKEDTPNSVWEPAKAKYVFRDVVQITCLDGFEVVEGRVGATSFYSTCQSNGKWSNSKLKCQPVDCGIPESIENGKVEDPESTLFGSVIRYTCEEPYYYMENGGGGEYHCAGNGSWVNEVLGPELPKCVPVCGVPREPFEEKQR
Format: biochemical
Summary of the method: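 C1s purified from human serum (1.16 nM final) was preincubated with compound for 5 min at room temperature in 50 mM Tris, 1 M NaCl, pH 7.5. Z-L-Lys-SBzl and DTNB were then added at 100 μM each, and A405 was followed for 30 min. IC50 came from nonlinear regression of reaction rates.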

IC50 [nM]	SMILES
< 100	C[C@@]12C[C@@H]1N(C(=O)CNC(=O)c1ccc(Oc3ccccc3)cc1)[C@H](C(=O)NCc1cc(C(=N)N)c(F)s1)C2 [Compound 239, (1S,3S,5S)-N-((4-carbamimidoyl-5-fluorothiophen-2-yl)methyl)-5-methyl-2-((4-phenoxybenzoyl)glycyl)-2-azabicyclo[3.1.0]hexane-3-carboxamide]
> 1000	N=C(N)c1csc([C@@H](NC(=O)[C@@H]2C[C@@H](OC(F)F)CN2C(=O)CNC(=O)c2ccc(Oc3ccccc3)cc2)C(N)=O)c1 (relative stereo) [Compound 214, (2S,4R)-N-((S*)-2-amino-1-(4-carbamimidoylthiophen-2-yl)-2-oxoethyl)-4-(difluoromethoxy)-1-((4-phenoxybenzoyl)glycyl)pyrrolidine-2-carboxamide]
< 100	C[C@@]12C[C@@H]1N(C(=O)CNC(=O)c1ccc(Oc3cccnc3)cc1)[C@H](C(=O)NCc1cc(C(=N)N)cs1)C2 [Compound 94, (1S,3S,5S)-N-[(4-carbamimidoylthiophen-2-yl)methyl]-5-methyl-2-(2-{[4-(pyridin-3-yloxy)phenyl]formamido}acetyl)-2-azabicyclo[3.1.0]hexane-3-carboxamide]
< 100	CC1(c2ccc(OCCCC(=O)NCC(=O)N3[C@H]4C[C@@]4(C)C[C@H]3C(=O)NCc3cc(C(=N)N)cs3)cc2)COC1 [Compound 140, (1S,3S,5S)-N-((4-carbamimidoylthiophen-2-yl)methyl)-5-methyl-2-((4-(4-(3-methyloxetan-3-yl)phenoxy)butanoyl)glycyl)-2-azabicyclo[3.1.0]hexane-3-carboxamide]
< 100	C[C@@H](NC(=O)[C@@H]1C[C@@H](Oc2ccccc2)CN1C(=O)CNC(=O)c1ccc(Oc2ccccc2)cc1)c1cc(C(=N)N)cs1 [Compound 181, (2S,4R)-N-((R)-1-(4-carbamimidoylthiophen-2-yl)ethyl)-4-phenoxy-1-((4-phenoxybenzoyl)glycyl)pyrrolidine-2-carboxamide]
< 100	N=C(N)c1csc(CNC(=O)[C@@H]2[C@H](O)[C@@H](F)CN2C(=O)CNC(=O)CCCOc2ccccc2)c1 [Compound 128, (2S,3S,4S)-N-((4-carbamimidoylthiophen-2-yl)methyl)-4-fluoro-3-hydroxy-1-((4-phenoxybutanoyl)glycyl)pyrrolidine-2-carboxamide]
> 1000	N=C(N)c1csc([C@H](NC(=O)[C@@H]2CC3(CN2C(=O)CNC(=O)CCCOc2ccccc2)OCCO3)C2CCCC2)c1 [Compound 174, (S)-N-((R)-(4-carbamimidoylthiophen-2-yl)(cyclopentyl)methyl)-7-((4-phenoxybutanoyl)glycyl)-1,4-dioxa-7-azaspiro[4.4]nonane-8-carboxamide]
< 100	N=C(N)c1csc(CNC(=O)[C@@H]2C[C@]3(CO)C[C@@H]3N2C(=O)CNC(=O)c2ccc(Oc3ccccc3)cc2)c1 [Compound 9, (1S,3S,5R)-N-((4-carbamimidoylthiophen-2-yl)methyl)-5-(hydroxymethyl)-2-((4-phenoxybenzoyl)glycyl)-2-azabicyclo[3.1.0]hexane-3-carboxamide]
< 100	C[C@@H](NC(=O)[C@@H]1C[C@@H](OC(F)F)CN1C(=O)CNC(=O)CCCOc1ccc(F)cc1)c1cc(C(=N)N)cs1 [Compound 108, (2S,4R)-N-((R)-1-(4-carbamimidoylthiophen-2-yl)ethyl)-4-(difluoromethoxy)-1-((4-(4-fluorophenoxy)butanoyl)glycyl)pyrrolidine-2-carboxamide]
< 100	C[C@@H](NC(=O)[C@@H]1C[C@@H](S(C)(=O)=O)CN1C(=O)CNC(=O)c1ccc(Oc2ccccc2)cc1)c1cc(C(=N)N)cs1 [Compound 192, (2S,4R)-N-((R)-1-(4-carbamimidoylthiophen-2-yl)ethyl)-4-(methylsulfonyl)-1-((4-phenoxybenzoyl)glycyl)pyrrolidine-2-carboxamide]
< 100	N=C(N)c1ccc(CNC(=O)[C@@H]2CC3(CN2C(=O)CNC(=O)CCCOc2ccccc2)OCCO3)s1 [Compound 83, (S)-N-((5-carbamimidoylthiophen-2-yl)methyl)-7-((4-phenoxybutanoyl)glycyl)-1,4-dioxa-7-azaspiro[4.4]nonane-8-carboxamide]
> 1000	C[C@@]12C[C@@H]1N(C(=O)CNC(=O)c1ccc(Oc3ccccc3)cc1)[C@H](C(=O)NCc1cc3ccnc(N)c3s1)C2 [Compound 256, (1S,3S,5S)-N-((7-aminothieno[2,3-c]pyridin-2-yl)methyl)-5-methyl-2-((4-phenoxybenzoyl)glycyl)-2-azabicyclo[3.1.0]hexane-3-carboxamide]
< 100	N=C(N)c1csc(CNC(=O)[C@@H]2CC(OC(F)(F)F)CN2C(=O)CNC(=O)c2ccc(Oc3ccccc3)cc2)c1 (stereo in doubt) [Compound 247, (2S,4S)-N-((4-carbamimidoylthiophen-2-yl)methyl)-1-((4-phenoxybenzoyl)glycyl)-4-(trifluoromethoxy)pyrrolidine-2-carboxamide]
< 100	CC(=O)NCc1cc(C(=O)NCC(=O)N2[C@H]3C[C@@]3(C)C[C@H]2C(=O)NCc2cc(C(=N)N)cs2)ccc1Oc1ccccc1 [Compound 10]

The remaining lines, values behind:

SMILES	IC50 [nM]
C[C@@]12C[C@@H]1N(C(=O)CNC(=O)CCCCc1ccccc1)[C@H](C(=O)NCc1cc(C(=N)N)cs1)C2 [Compound 81, (1S,3S,5S)-N-((4-carbamimidoylthiophen-2-yl)methyl)-5-methyl-2-((5-phenyl-pentanoyl)glycyl)-2-azabicyclo[3.1.0]hexane-3-carboxamide]	< 100
C[C@@]12C[C@@H]1N(C(=O)CNC(=O)c1ccc(Oc3ccccc3)cc1)[C@H](C(=O)N(O)Cc1cc(C(=N)N)cs1)C2 [Compound 127, (1S,3S,5S)-N-((4-carbamimidoylthiophen-2-yl)methyl)-N-hydroxy-5-methyl-2-((4-phenoxybenzoyl)glycyl)-2-azabicyclo[3.1.0]hexane-3-carboxamide]	> 1000
C[C@@]12C[C@@H]1N(C(=O)CNC(=O)c1ccc(Oc3ccccc3)nc1)[C@H](C(=O)NCc1cc(C(=N)N)cs1)C2 [Compound 143, (1S,3S,5S)-N-((4-carbamimidoylthiophen-2-yl)methyl)-5-methyl-2-((6-phenoxynicotinoyl)glycyl)-2-azabicyclo[3.1.0]hexane-3-carboxamide]	< 100
C[C@H](NC(=O)[C@@H]1C[C@]2(C)C[C@@H]2N1C(=O)CNC(=O)c1ccc(Oc2ccccc2)cc1)c1cc(-c2ncc[nH]2)cs1 [Compound 254, (1S,3S,5S)-N-((S)-1-(4-(1H-imidazol-2-yl)thiophen-2-yl)ethyl)-5-methyl-2-((4-phenoxybenzoyl)glycyl)-2-azabicyclo[3.1.0]hexane-3-carboxamide]	> 1000
N=C(N)c1csc(CNC(=O)[C@@H]2C[C@@H](OCC3CC3)CN2C(=O)CNC(=O)c2ccc(Oc3ccccc3)cc2)c1 [Compound 50, (2S,4R)-N-((4-carbamimidoylthiophen-2-yl)methyl)-4-(cyclopropylmethoxy)-1-((4-phenoxybenzoyl)glycyl)pyrrolidine-2-carboxamide]	< 100
C[C@@]12C[C@@H]1N(C(=O)CN1CCc3cc(Oc4ccccc4)ccc3C1=O)[C@H](C(=O)NCc1cc(C(=N)N)cs1)C2 [Compound 161, (1S,3S,5S)-N-((4-carbamimidoylthiophen-2-yl)methyl)-5-methyl-2-(2-(1-oxo-6-phenoxy-3,4-dihydroisoquinolin-2(1H)-yl)acetyl)-2-azabicyclo[3.1.0]hexane-3-carboxamide]	< 100
C[C@@]12C[C@@H]1N(C(=O)CNC(=O)c1ccc(Oc3ccccc3)cc1)[C@H](C(=O)NCc1ccc3onc(N)c3c1)C2 [Compound 67, (1S,3S,5S)-N-((3-aminobenzo[d]isoxazol-5-yl)methyl)-5-methyl-2-((4-phenoxy-benzoyl)glycyl)-2-azabicyclo[3.1.0]hexane-3-carboxamide]	> 1000
N=C(N)c1csc(CNC(=O)[C@@H]2C[C@H](C(F)(F)F)CN2C(=O)CNC(=O)CCCOc2ccccc2)c1 [Compound 59, (2S,4S)-N-((4-carbamimidoylthiophen-2-yl)methyl)-1-((4-phenoxybutanoyl)glycyl)-4-(trifluoromethyl)pyrrolidine-2-carboxamide]	< 100
N=C(N)c1csc([C@H](NC(=O)[C@@H]2C[C@@H](OC(F)F)CN2C(=O)CNC(=O)c2ccc(Oc3ccccc3)cc2)C2CCCC2)c1 [Compound 193, (2S,4R)-N-((R)-(4-carbamimidoylthiophen-2-yl)(cyclopentyl)methyl)-4-(difluoromethoxy)-1-((4-phenoxybenzoyl)glycyl)pyrrolidine-2-carboxamide]	> 1000
N=C(N)c1csc(CNC(=O)[C@@H]2C[C@]3(CCO3)CN2C(=O)CNC(=O)c2ccc(Oc3ccccc3)cc2)c1 [Compound 195, (4S,7S)-N-((4-carbamimidoylthiophen-2-yl)methyl)-6-((4-phenoxybenzoyl)glycyl)-1-oxa-6-azaspiro[3.4]octane-7-carboxamide]	< 100

Source: US20250171423A1, “PHARMACEUTICAL COMPOUNDS FOR THE TREATMENT OF COMPLEMENT MEDIATED DISORDERS” (Achillion Pharmaceuticals, Inc., priority 2020, published 2025)
